The text below walks through data of US3944498A, “Germicidal detergent containing a thienyliodonium salt” (The Dow Chemical Company, priority 1973, dated 1976).

A value given as a limit tells only on which side of the number the result lay.

One data set deals with A. aerogenes. The experiment in a line: Agar plate kill test with Ivory soap, A. aerogenes. Type of data set: cell-based. The note with it: Ivory soap. The method, then: (§1) Phenyl-2-thienyliodonium chloride, 2,2'-bisthienyliodonium chloride, and, for comparative purposes, diphenyliodonium chloride are individually dispersed in Ivory soap to provide concentrates containing 1 part by weight of iodonium salt to 50 parts by weight of soap. The soap concentrates are serially dispersed and serially diluted with liquid nutrient agar at 42°C. to prepare culture media containing various concentrations of one of the iodonium salts. The culture media are uniformly inoculated with S. aureus and plated in petri dishes. The inoculation is carried out from broth cultures of the named organism containing about 5×10^8 organisms per milliliter in the proportion of one-tenth milliliter of bacterial culture per 20 milliliters of cultur medium containing each test compound. In a check operation, nutrient agar containing the same amount of Ivory soap is similarly inoculated with the same organism. After two days' incubation at 37°C., the plates are examined for microbial growth.
The procedure described above is repeated with varying concentrations of 4-chlorophenyl-2-thienyliodonium chloride, 3,4-dichlorophenyl-2-thienyliodonium chloride, and for comparative purposes bis(4-chlorophenyl)iodonium chloride, phenyl-4-chlorophenyliodonium chloride and bis(2,4-dichlorophenyl)iodoniumchloride in a series of tests wherein the culture media are inoculated individually with the organism A. aerogenes.
The procedure described above is once again repeated with each of 2,2'-bisthienyliodonium chloride, phenyl-2-thienyliodonium chloride, 4-bromophenyl-2-thienyliodonium chloride, bis(4-bromophenyl)iodonium chloride and bis(4-bromophenyl)iodonium bromide in a series of tests wherein the culture media are inoculated individually with the organism A. aerogenes.

Data set [1] concerns S. typhosa. The experiment in a line: Agar plate kill test with Ivory soap, S. typhosa. In kind it is cell-based. How it is done:
as §1
The procedure described above is again repeated in a series of tests wherein the culture media are inoculated individually with the organism S. typhosa and wherein the culture media contain varying concentrations of one of the iodonium salts, as set forth in following Table II.

Data set [2] has as its system S. aureus. The experiment in a line: Nutrient agar growth test, S. aureus (Example 3). Type of data set: cell-based. The conditions noted are these: 0.001 percent by weight, 2 days, 35°C. The text has this: (§2) The 4-chlorophenyl-2-thienyliodonium chloride, trifluoroacetate and trichloroacetate salts are dispersed in melted nutrient agar to produce culture media containing 0.001 percent by weight of one of the salt compounds. Such melted media are then poured into petri dishes and the solidified surface in each dish inoculated with a 24-hour broth culture, one of the organisms S. aureus and S. typhosa. In a check operation, petri dishes containing unmodified nutrient agar are each individually inoculated in the same manner with the named organisms. After two days' incubation at 35°C. the agar surface in each dish is examined for microbial growth. […] At the time of these observations the check dishes are found to support a heavy growth of the two named organisms.

In data set [3] the test system is S. typhosa. As to the kind of experiment: Nutrient agar growth test, S. typhosa (Example 3). Type of data set: cell-based. The note with it: 0.001 percent by weight, 2 days, 35°C.
Text: as §2

Data set [4] has as its system P. aeruginosa. As to the kind of experiment: Agar dilution MIC in presence of Ivory soap, P. aeruginosa. Type of data set: cell-based. The conditions noted are these: Pseudomonas aeruginosa; read-out: Minimum growth inhibitory concentration, P. aeruginosa. How it is done:
(§3) The growth-inhibitory activity of the below-indicated compounds against some microorganisms most relevant to the human skin was determined by standard agar dilution techniques to provide the data given in following Table 1.
(§4) In Table 1, the first column gives the chemical structures of the test compounds, while the additional columns give the names of the test organisms and the minimum inhibitory concentration in parts per million (p.p.m.) of the compounds listed for 100% growth inhibition against the particular microorganisms indicated. […] For each p.p.m. of test compound, 50 p.p.m. of Ivory soap was also present in the culture medium for part A of Table 1, while in part B of Table 1, the culture medium was free of any additive other than the test compound. The data for compounds 13 through 16 of part B of Table 1 were taken from Cannon U.S. Pat. No. 3,207,660 while those for compounds 17 and 18 were taken from trade literature.

The test system of data set [5] is S. typhosa. As to the kind of experiment: Agar dilution MIC in presence of Ivory soap, S. typhosa. In kind it is cell-based. The note with it: read-out: Minimum growth inhibitory concentration, S. typhosa. How it is done: as §3, §4
For data set [6], the system named is S. aureus. As to the kind of experiment: Agar dilution MIC in presence of Ivory soap, S. aureus. The conditions noted are these: Staphylococcus aureus; read-out: Minimum growth inhibitory concentration, S. aureus. In kind it is cell-based. How it is done: as §3, §4
A short description of data set [7]: Range-finding median lethal dose (LD50) in mice. The conditions noted are these: mouse, in vivo; single oral dose in corn oil, 14-day observation. How it is done: The range-finding oral median lethal dose (LD50) for iodonium and other antimicrobial compounds, including diphenyl- and thienyliodonium salts as well as several proprietary products was determined in mice. Compounds 1 through 11 of following Table 2 were fed to five groups of two mice each, the test compound being administered in suspension in corn oil as a single oral dose and the mortality experience of the mice was observed over a 14-day period. Data for compounds 12 through 15 were taken from U.S. Pat. No. 3,207,660, and for compounds 16 through 18 were taken from trade literature.

Another data set concerns mice. The note with it: cited from earlier work; for Oral LD50 (mice): 12-15 from U.S. Pat. No. 3,207,660, 17, 18 from trade literature.
In data set [8] the test system is P. aeruginosa. The conditions noted are these: absence of soap; 13-16 from Cannon U.S. Pat. No. 3,207,660, 17-18 from trade literature; cited from earlier work.
Data set [9] concerns S. aureus. The conditions noted are these: absence of soap; 13-16 from Cannon U.S. Pat. No. 3,207,660, 17-18 from trade literature; cited from earlier work.
The mark [10] stands for this setting: 48 h, read-out: Percent Kill of S. Typhosa.
[11] abbreviates: Klebsiella aerogenes, 48 h, 10 p.p.m., read-out: Percent Kill of A. aerogenes.

For `Clc1ccc([I+]c2cccs2)cc1Cl` [3,4-dichlorophenyl-2-thienyliodonium chloride], the killing at 1 ppm in the data set on A. aerogenes (Klebsiella aerogenes, 48 h, 1 p.p.m., read-out: Percent Kill of A. aerogenes) amounted to 100%; with S. typhosa [1] (setting [10]), 100%.
Turning to `Clc1ccc([I+]c2cccs2)cc1.O=C([O-])C(F)(F)F` [4-Chlorophenyl-2-thienyliodonium trifluoroacetate], the “microbial growth on agar surface” value in the data set with S. aureus [2] and with S. typhosa [3] was “free of microbial growth” in each case.
With `Brc1ccc([I+]c2cccs2)cc1` [4-bromophenyl-2-thienyliodonium chloride], the killing at 5 ppm with A. aerogenes (Klebsiella aerogenes, 48 h, 5 p.p.m., read-out: Percent Kill of A. aerogenes) was 100%; with S. typhosa [1] (setting [10]), 100%.
As for `Clc1ccc([I+]c2cccs2)cc1` [4-chlorophenyl-2-thienyliodonium trichloroacetate], the “microbial growth on agar surface” value in the data set with S. aureus [2] and with S. typhosa [3] was “free of microbial growth” in each case.
In the case of `c1ccc([I+]c2ccccc2)cc1` [Compound 1 (Table 1)], the MIC in the data set on P. aeruginosa [4], in the data set with S. typhosa [5] and with S. aureus [6] was greater than 500 µg/mL each time.
`c1ccc([I+]c2ccccc2)cc1` [Compound 1 (Table 2)] yielded a median lethal dose (LD50) in [7] of 56.2 mg/kg.
As to `c1ccc([I+]c2cccs2)cc1` [Compound 2 (Table 1)], the MIC with P. aeruginosa [4], in the data set on S. typhosa [5] and in the data set on S. aureus [6] was 5 µg/mL each time.
Take `c1csc([I+]c2cccs2)c1` [Compound 3 (Table 1)]: the MIC with P. aeruginosa [4] came to 5 µg/mL; in the data set on S. typhosa [5] it was 0.5 µg/mL; in the data set with S. aureus [6], 0.5 µg/mL.
Take `c1ccc([I+]c2cccs2)cc1` [Compound 3 (Table 2)]: the median lethal dose (LD50) in data set [7] came out at 2000 mg/kg.
Consider `Clc1ccc([I+]c2ccccc2)cc1` [Compound 4 (Table 1)], for which the MIC was greater than 100 µg/mL in the data set on P. aeruginosa [4], greater than 10 µg/mL with S. typhosa [5] and 10 µg/mL in the data set on S. aureus [6].
With `c1csc([I+]c2cccs2)c1` [Compound 4 (Table 2)], in data set [7], the LD50 was determined as 500 mg/kg.
For `Clc1ccc([I+]c2ccc(Cl)cc2)cc1` [Compound 5 (Table 1)], the MIC with P. aeruginosa [4] is greater than 100 µg/mL; in the data set on S. typhosa [5], 10 µg/mL; with S. aureus [6], 10 µg/mL.
In [7], `Clc1ccc([I+]c2cccs2)cc1` [Compound 5 (Table 2)] gave a 50% lethal dose (LD50) greater than 4000 mg/kg.
In the case of `Clc1ccc([I+]c2cccs2)cc1` [Compound 6 (Table 1)], the MIC in the data set on P. aeruginosa [4], in the data set on S. typhosa [5] and with S. aureus [6] was 1 µg/mL each time.
`Clc1ccc([I+]c2cccs2)cc1Cl` [Compound 6 (Table 2)] returned a 50% lethal dose (LD50) in data set [7] of 2000 mg/kg.
Turning to `Clc1ccc([I+]c2ccc(Cl)c(Cl)c2)cc1Cl` [Compound 7 (Table 1)], the MIC with P. aeruginosa [4] was greater than 500 µg/mL; with S. typhosa [5], greater than 10 µg/mL; in the data set on S. aureus [6], 5 µg/mL.
As to `Cc1ccc([I+]c2cccs2)cc1` [Compound 7 (Table 2)], the LD50 in data set [7] stood at 750 mg/kg.
On to `Clc1ccc([I+]c2cccs2)cc1Cl` [Compound 8 (Table 1)], for which the MIC in the data set on P. aeruginosa [4], in the data set on S. typhosa [5] and in the data set on S. aureus [6] was 1 µg/mL throughout.
Turning to `CCc1ccc([I+]c2cccs2)cc1` [Compound 8 (Table 2)], in data set [7], the 50% lethal dose (LD50) was determined as 1500 mg/kg.
`CCOc1ccc([I+]c2ccccc2)cc1` [Compound 9 (Table 1)]: the MIC with P. aeruginosa [4], in the data set with S. typhosa [5] and in the data set with S. aureus [6] was greater than 500 µg/mL throughout.
`Cc1ccc(C)c([I+]c2cccs2)c1` [Compound 9 (Table 2)]: the 50% lethal dose (LD50) in data set [7] is 3000 mg/kg.
With `CCOc1ccc([I+]c2cccs2)cc1` [Compound 10 (Table 1)], the results for the MIC in the data set with P. aeruginosa [4], in the data set on S. typhosa [5] and with S. aureus [6] were 50 µg/mL, 5 µg/mL and 5 µg/mL, respectively.
In data set [7], `c1ccc(Oc2ccc([I+]c3cccs3)cc2)cc1` [Compound 10 (Table 2)] had a median lethal dose (LD50) of 3000 mg/kg.
Same read-out and setting: the figure for `c1ccc(-c2ccc([I+]c3cccs3)cc2)cc1` [Compound 11 (Table 2)] is 4000 mg/kg.
`c1ccc2c(c1)[I+]c1ccccc1-2` [Compound 12 (Table 2)]: in the data set on mice, the “Oral LD50 (mice)” value is reported as 12.5 mg/kg.
Turning to `c1ccc2c(c1)[I+]c1ccccc1-2` [Compound 13 (Table 1)], the “Minimum growth inhibitory concentration, P. aeruginosa” value with P. aeruginosa [8] is recorded as 3.13 ppm. Also, the “Minimum growth inhibitory concentration, S. aureus” value in the data set with S. aureus [9] is listed as 3.13 ppm.
As to `c1ccc2c(c1)[I+]c1ccccc1-2` [Compound 13 (Table 2)], in the data set on mice, the “Oral LD50 (mice)” value was 8.75 ± 0.57 mg/kg.
Turning to `c1ccc2c(c1)[I+]c1ccccc1-2` [Compound 14 (Table 1)], in the data set with P. aeruginosa [8], the “Minimum growth inhibitory concentration, P. aeruginosa” value is given as 5 ppm. Also, in the data set on S. aureus [9], the “Minimum growth inhibitory concentration, S. aureus” value was 5 ppm.
Take `Clc1cccc2c1-c1c(Cl)cccc1[I+]2` [Compound 14 (Table 2)]: the “Oral LD50 (mice)” value with mice was 8 to 10 mg/kg.
Consider `Clc1cccc2c1-c1ccccc1[I+]2` [Compound 15 (Table 1)], for which the “Minimum growth inhibitory concentration, P. aeruginosa” value with P. aeruginosa [8] was 3.13 ppm. Also, the “Minimum growth inhibitory concentration, S. aureus” value in the data set on S. aureus [9] was 1.56 ppm.
Regarding `Clc1ccc2c(c1)[I+]c1cc(Cl)ccc1-2` [Compound 15 (Table 2)], the “Oral LD50 (mice)” value with mice is 21.32 ± 3.2 mg/kg.
As for `Clc1ccc2c(c1)[I+]c1cc(Cl)ccc1-2` [Compound 16 (Table 1)], the “Minimum growth inhibitory concentration, P. aeruginosa” value with P. aeruginosa [8] is 6.25 ppm. Besides, in the data set with S. aureus [9], the “Minimum growth inhibitory concentration, S. aureus” value is reported as 1.56 ppm.
On to `C[CH2][Hg][S]c1ccccc1C(=O)[O-].[Na+]` [Merthiolate], for which, in the data set with mice (S.C., trade literature), the “LD50 (mice), subcutaneous” value was 66 mg/kg.
`Clc1ccc([I+]c2ccc(Cl)cc2Cl)c(Cl)c1` [bis(2,4-dichlorophenyl)iodonium chloride, bis(2,4-dichlorophenyl)iodoniumchloride, reference compound]: the killing at 10 ppm with A. aerogenes (setting [11]) and with S. typhosa [1] (setting [10]) was 0% throughout.
As to `Brc1ccc([I+]c2ccc(Br)cc2)cc1.[Br-]` [bis(4-bromophenyl)iodonium bromide, reference compound], the “Percent Kill of A. aerogenes” value with A. aerogenes (10 p.p.m.) worked out at 0%. In addition, the “Percent Kill of S. Typhosa” value in the data set with S. typhosa [1] (10 p.p.m., Ivory soap) is 0%.
Take `Brc1ccc([I+]c2ccc(Br)cc2)cc1` [bis(4-bromophenyl)iodonium chloride, reference compound]: the killing at 10 ppm with A. aerogenes (setting [11]) and in the data set with S. typhosa [1] (setting [10]) was 0% in each case.
For `Clc1ccc([I+]c2ccc(Cl)cc2)cc1` [bis(4-chlorophenyl)iodonium chloride, reference compound], the killing at 100 ppm in the data set with A. aerogenes (Klebsiella aerogenes, 48 h, 100 p.p.m., read-out: Percent Kill of A. aerogenes) turned out to be 0%.
Consider `Oc1c(Cl)cc(Cl)c(Cl)c1Cc1c(O)c(Cl)cc(Cl)c1Cl` [hexachlorophene], for which the “Oral LD50 (mice)” value in the data set on mice is 161 mg/kg.
In the case of `Clc1ccc([I+]c2ccccc2)cc1.[Cl-]` [phenyl-4-chlorophenyliodonium chloride, reference compound], the killing at 10 ppm in the data set with A. aerogenes (setting [11]) and with S. typhosa [1] (setting [10]) was 0% in each case. This compound also had an LD50 in data set [7] of 68 mg/kg.
